Values of other authors, collected in patent US20220259114A1, “Microbe-Based Compositions for Restoring Soil Health and Controlling Pests” (Locus Agriculture IP Company, LLC, priority 2019, published 2022).
*1 amine or outer side, *2 acyl side, *3 side chain or, on linkers, in order; H or OH if unused. Where a SMILES comes first, the peptide text is derived from it. Bridges are numbered along the chain shown (N, C = ends). [ ]: non-standard residue; d: D form. X1 = CC(C)CCCCCCCCC[C@H](CC(=O)[*:1])O[*:2]

Experiments:
[1] = stated 'in one embodiment'; species and route not given
[2] = test system: plant pathogens including bacteria, fungi, viruses and nematodes; settings: in most cases does not exceed
[3] = reduced from 72 mN/m; concentration as low as 0.005%

surface tension of water after reduction [3] [mN/m] | Molecule | toxic dose [1] | effective SLP concentration for biopesticide activity, in most cases [2] [mg/L]
 | sophorolipid [SLP] | > 375 mg/kg of body weight | ≤ 3
27 | CC(C)CCCCCCCCC[C@@H]1CC(=O)N[C@@H](CCC(=O)O)C(=O)N[C@@H](CC(C)C)C(=O)N[C@H](CC(C)C)C(=O)N[C@@H](C(C)C)C(=O)N[C@@H](CC(=O)O)C(=O)N[C@H](CC(C)C)C(=O)N[C@@H](CC(C)C)C(=O)O1 [Surfactin, surfactin] (EL[dL]VD[dL]L; linker N-C via X1) |  | 
